Data: the supplement of paper PMC10733146

Tests used:
Assay in all cases: viability relative to DMSO control (fraction); higher = less drug effect (more viable cells)
Conditions in all cases: 48 h
[1] = system: primary AML patient cells (S002)
How it was run: (§1)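 Viability was quantified by CellTiter-Glo luminescence and related to the median of 16 inner DMSO wells. Before that, primary mononuclear tumour cells, fresh or cryopreserved and Ficoll-isolated from blood or bone marrow or prepared from processed lymph node, were plated at 4 × 10^4 cells per well in 384-well plates containing pre-plated compounds at five concentrations, one well each. Plates were incubated in RPMI-1640 with penicillin/streptomycin, L-glutamine and human serum at 37 °C and 5% CO2 for 48 h.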

[2] = system: primary AML patient cells (S009)
How it was run: as §1

[3] = system: primary AML patient cells (S011)
How it was run: as §1

[4] = system: primary AML patient cells (S012)
How it was run: as §1

[5] = system: primary AML patient cells (S017)
How it was run: as §1

[6] = system: primary AML patient cells (S019)
How it was run: as §1

[7] = system: primary AML patient cells (S021)
How it was run: as §1

[8] = system: primary AML patient cells (S025)
How it was run: as §1

[9] = system: primary AML patient cells (S037)
How it was run: as §1

[10] = system: primary AML patient cells (S081)
How it was run: as §1

[11] = system: primary AML patient cells (S085)
How it was run: as §1

[12] = system: primary AML patient cells (S091)
How it was run: as §1

[13] = system: primary B-PLL patient cells (S016)
How it was run: as §1

[14] = system: primary BL patient cells (S005)
How it was run: as §1

[15] = system: primary FL patient cells (S022)
How it was run: as §1

[16] = system: primary FL patient cells (S087)
How it was run: as §1

[17] = system: primary MCL patient cells (S041)
How it was run: as §1

[18] = system: primary MCL patient cells (S053)
How it was run: as §1

[19] = system: primary MCL patient cells (S068)
How it was run: as §1

[20] = system: primary T-PLL patient cells (S008)
How it was run: as §1

## CC1(COc2ccc3c(c2)ncn3-c2ccc3cccc(N4CCC(N)CC4)c3n2)COC1 [Crenolanib]
[1]; 0.016 µM
  viability: 0.956
[1]; 0.08 µM
  viability: 1.13
[1]; 0.4 µM
  viability: 1.3
[1]; 2 µM
  viability: 1.5
[1]; 10 µM
  viability: 0.426
[2]; 0.016 µM
  viability: 0.926
[2]; 0.08 µM
  viability: 0.979
[2]; 0.4 µM
  viability: 0.921
[2]; 2 µM
  viability: 2.2
[2]; 10 µM
  viability: 0.301
[3]; 0.016 µM
  viability: 1.14
[3]; 0.08 µM
  viability: 0.997
[3]; 0.4 µM
  viability: 1.02
[3]; 2 µM
  viability: 0.824
[3]; 10 µM
  viability: 0.0337
[4]; 0.016 µM
  viability: 0.935
[4]; 0.08 µM
  viability: 0.964
[4]; 0.4 µM
  viability: 0.978
[4]; 2 µM
  viability: 0.959
[4]; 10 µM
  viability: 0.528
[5]; 0.016 µM
  viability: 1.05
[5]; 0.08 µM
  viability: 1.09
[5]; 0.4 µM
  viability: 1.12
[5]; 2 µM
  viability: 1.16
[5]; 10 µM
  viability: 0.109
[6]; 0.016 µM
  viability: 0.927
[6]; 0.08 µM
  viability: 1.17
[6]; 0.4 µM
  viability: 0.995
[6]; 2 µM
  viability: 1.19
[6]; 10 µM
  viability: 0.148
[7]; 0.016 µM
  viability: 1.04
[7]; 0.08 µM
  viability: 1.15
[7]; 0.4 µM
  viability: 1.17
[7]; 2 µM
  viability: 0.984
[7]; 10 µM
  viability: 0.453
[8]; 0.016 µM
  viability: 0.983
[8]; 0.08 µM
  viability: 1.12
[8]; 0.4 µM
  viability: 1.29
[8]; 2 µM
  viability: 1.29
[8]; 10 µM
  viability: 0.173
[9]; 0.016 µM
  viability: 1.06
[9]; 0.08 µM
  viability: 1.09
[9]; 0.4 µM
  viability: 1.04
[9]; 2 µM
  viability: 0.811
[9]; 10 µM
  viability: 0.572
[10]; 0.016 µM
  viability: 0.948
[10]; 0.08 µM
  viability: 1.09
[10]; 0.4 µM
  viability: 0.953
[10]; 2 µM
  viability: 1.07
[10]; 10 µM
  viability: 0.0325
[11]; 0.016 µM
  viability: 1.13
[11]; 0.08 µM
  viability: 1.3
[11]; 0.4 µM
  viability: 2.22
[11]; 2 µM
  viability: 1.82
[11]; 10 µM
  viability: 0.0652
[12]; 0.016 µM
  viability: 1.03
[12]; 0.08 µM
  viability: 1.32
[12]; 0.4 µM
  viability: 1.37
[12]; 2 µM
  viability: 1.58
[12]; 10 µM
  viability: 0.101
[13]; 0.016 µM
  viability: 1.04
[13]; 0.08 µM
  viability: 1.24
[13]; 0.4 µM
  viability: 0.794
[13]; 2 µM
  viability: 0.553
[13]; 10 µM
  viability: 0.0382
[14]; 0.016 µM
  viability: 0.9
[14]; 0.08 µM
  viability: 0.959
[14]; 0.4 µM
  viability: 0.896
[14]; 2 µM
  viability: 0.913
[14]; 10 µM
  viability: 0.414
[15]; 0.016 µM
  viability: 0.991
[15]; 0.08 µM
  viability: 1.07
[15]; 0.4 µM
  viability: 0.966
[15]; 2 µM
  viability: 0.743
[15]; 10 µM
  viability: 0.0846
[16]; 0.016 µM
  viability: 1.02
[16]; 0.08 µM
  viability: 0.971
[16]; 0.4 µM
  viability: 1
[16]; 2 µM
  viability: 0.847
[16]; 10 µM
  viability: 0.357
[17]; 0.016 µM
  viability: 1.08
[17]; 0.08 µM
  viability: 1.07
[17]; 0.4 µM
  viability: 0.983
[17]; 2 µM
  viability: 0.447
[17]; 10 µM
  viability: 0.0254
[18]; 0.016 µM
  viability: 1.03
[18]; 0.08 µM
  viability: 1.07
[18]; 0.4 µM
  viability: 1.12
[18]; 2 µM
  viability: 0.963
[18]; 10 µM
  viability: 0.348
[19]; 0.016 µM
  viability: 0.812
[19]; 0.08 µM
  viability: 0.846
[19]; 0.4 µM
  viability: 0.572
[19]; 2 µM
  viability: 0.417
[19]; 10 µM
  viability: 0.031
[20]; 0.016 µM
  viability: 0.989
[20]; 0.08 µM
  viability: 1.04
[20]; 0.4 µM
  viability: 1.06
[20]; 2 µM
  viability: 1.07
[20]; 10 µM
  viability: 0.107

## Nc1ccn([C@@H]2O[C@H](CO)[C@@H](O)[C@@H]2O)c(=O)n1 [Cytarabine]
[1]; 0.032 µM
  viability: 1.04
[1]; 0.16 µM
  viability: 0.899
[1]; 0.8 µM
  viability: 0.607
[1]; 4 µM
  viability: 0.317
[1]; 20 µM
  viability: 0.26
[2]; 0.032 µM
  viability: 1.04
[2]; 0.16 µM
  viability: 0.96
[2]; 0.8 µM
  viability: 0.82
[2]; 4 µM
  viability: 0.521
[2]; 20 µM
  viability: 0.383
[3]; 0.032 µM
  viability: 1.52
[3]; 0.16 µM
  viability: 1.04
[3]; 0.8 µM
  viability: 0.942
[3]; 4 µM
  viability: 0.681
[3]; 20 µM
  viability: 0.224
[4]; 0.032 µM
  viability: 0.99
[4]; 0.16 µM
  viability: 0.927
[4]; 0.8 µM
  viability: 0.985
[4]; 4 µM
  viability: 0.935
[4]; 20 µM
  viability: 0.602
[5]; 0.032 µM
  viability: 1.11
[5]; 0.16 µM
  viability: 1.07
[5]; 0.8 µM
  viability: 1.15
[5]; 4 µM
  viability: 0.665
[5]; 20 µM
  viability: 0.303
[6]; 0.032 µM
  viability: 1.19
[6]; 0.16 µM
  viability: 1.15
[6]; 0.8 µM
  viability: 0.871
[6]; 4 µM
  viability: 0.387
[6]; 20 µM
  viability: 0.24
[7]; 0.032 µM
  viability: 1.03
[7]; 0.16 µM
  viability: 1.1
[7]; 0.8 µM
  viability: 0.882
[7]; 4 µM
  viability: 0.849
[7]; 20 µM
  viability: 0.419
[8]; 0.032 µM
  viability: 1.02
[8]; 0.16 µM
  viability: 0.877
[8]; 0.8 µM
  viability: 0.649
[8]; 4 µM
  viability: 0.324
[8]; 20 µM
  viability: 0.112
[9]; 0.032 µM
  viability: 1.08
[9]; 0.16 µM
  viability: 1.03
[9]; 0.8 µM
  viability: 1.02
[9]; 4 µM
  viability: 0.666
[9]; 20 µM
  viability: 0.467
[10]; 0.032 µM
  viability: 1.1
[10]; 0.16 µM
  viability: 1.07
[10]; 0.8 µM
  viability: 1.14
[10]; 4 µM
  viability: 0.884
[10]; 20 µM
  viability: 0.4
[11]; 0.032 µM
  viability: 1.1
[11]; 0.16 µM
  viability: 1.02
[11]; 0.8 µM
  viability: 0.925
[11]; 4 µM
  viability: 0.372
[11]; 20 µM
  viability: 0.106
[12]; 0.032 µM
  viability: 0.974
[12]; 0.16 µM
  viability: 0.858
[12]; 0.8 µM
  viability: 0.694
[12]; 4 µM
  viability: 0.513
[12]; 20 µM
  viability: 0.409
[13]; 0.032 µM
  viability: 1.11
[13]; 0.16 µM
  viability: 0.733
[13]; 0.8 µM
  viability: 0.145
[13]; 4 µM
  viability: 0.0425
[13]; 20 µM
  viability: 0.0373
[14]; 0.032 µM
  viability: 1.03
[14]; 0.16 µM
  viability: 1.02
[14]; 0.8 µM
  viability: 0.98
[14]; 4 µM
  viability: 0.969
[14]; 20 µM
  viability: 0.893
[15]; 0.032 µM
  viability: 1.17
[15]; 0.16 µM
  viability: 1.04
[15]; 0.8 µM
  viability: 1.09
[15]; 4 µM
  viability: 0.93
[15]; 20 µM
  viability: 0.589
[16]; 0.032 µM
  viability: 1.03
[16]; 0.16 µM
  viability: 1.02
[16]; 0.8 µM
  viability: 0.959
[16]; 4 µM
  viability: 0.747
[16]; 20 µM
  viability: 0.628
[17]; 0.032 µM
  viability: 1.08
[17]; 0.16 µM
  viability: 1
[17]; 0.8 µM
  viability: 0.732
[17]; 4 µM
  viability: 0.21
[17]; 20 µM
  viability: 0.115
[18]; 0.032 µM
  viability: 1.01
[18]; 0.16 µM
  viability: 0.754
[18]; 0.8 µM
  viability: 0.327
[18]; 4 µM
  viability: 0.195
[18]; 20 µM
  viability: 0.136
[19]; 0.032 µM
  viability: 1.1
[19]; 0.16 µM
  viability: 1.01
[19]; 0.8 µM
  viability: 0.807
[19]; 4 µM
  viability: 0.38
[19]; 20 µM
  viability: 0.209
[20]; 0.032 µM
  viability: 1.05
[20]; 0.16 µM
  viability: 0.968
[20]; 0.8 µM
  viability: 0.876
[20]; 4 µM
  viability: 0.434
[20]; 20 µM
  viability: 0.209
